Columns and labels:
[1] = tested on: Arabidopsis, tomato, and wheat roots; experiment: LC-MS comparative metabolomics of ascr #18-treated plant roots; type: in vivo
Procedure: Plant tissues were immediately frozen in liquid nitrogen and ground to a fine powder and extracted with 350 μL mixture of water/methanol/chloroform (1:2:1) for 12 hours at 4° C., with shaking at 220 rpm. The extracts were dried in vacuo, resuspended in 100-200 μL of 80% methanol and analyzed by LC/MS. For root tissues, seedlings were extensively washed three times with the excess amount of distilled water and dried on filter paper. The root tissues from 40 seedlings were pooled in one tube and then similarly extracted. Mixed stage C. elegans culture extract was prepared as described (Panda, et al. (2017) Angew Chem. Int. Ed. Engl. 56(17): 4729-4733).
High resolution LC-MS analysis was performed on a Dionex™ 3000 UPLC system coupled with a Thermo Q Exactive™ high-resolution mass spectrometer as described (Artyukhin, et al. (2018) J. Am. Chem. Soc. 140 (8): 2841-2852; Panda, et al. (2017) Angew Chem. Int. Ed. Engl. 56 (17): 4729-4733). Metabolite extracts were separated using water-acetonitrile gradient using Agilent ZORBOX Eclispse XDB-C18 rapid resolution column (2.1 mm×150 mm, particle size 1.8-micron) maintained at 40° C. Solvent A: 0.1% formic acid in water; Solvent B: 0.1% formic acid in acetonitrile. […] Ascarosides were detected in negative ionization mode as [M-H]— and MS/MS spectra and retention times confirmed by comparison with known standards. […]

[2] = tested on: Arabidopsis wildtype and ibr10, ech2, ech2ibr10, or acx1acx5 mutants; type: in vivo, Arabidopsis thaliana; conditions: for ascaroside levels in ascr #18-treated acx1acx5 mutant compared with wildtype: roots treated with 1 μM ascr #18
Procedure: FIG. 3A provides a comparison of peroxisomal β-oxidation (pβo) pathways and associated enzymes involved in the conversion of indole-3-butyric acid (IBA)-to-indole acetic acid (IAA) in Arabidopsis and ascaroside biosynthesis in C. elegans. FIG. 3B provides LC-MS analysis of Arabidopsis seedlings treated with 1 μM ascr #18 for 24 hours before sample extraction, comparing ascr #9 production in wildtype and ibr10, ech2, ech2ibr10, or acx1acx5 mutants. FIG. 3C provides a comparison of ascaroside abundances in Arabidopsis wildtype and acx1acx5 roots treated with 1 μM ascr #18. Data are averages±SEM (n=5); n.d.=not detected. FIG. 3D provides RNAseq analysis of ten day-old Arabidopsis wildtype and acx1acx5 mutant roots, plotted as transcript abundance. Data are averages±s.d (n=6).
Arabidopsis thaliana mutant genotypes in the Col-0 background, ibr10-1, ech2-1, ibr10-1ech2-1, and acx1-2acx5-1, were obtained from Rice University (Houston, TX) (Strader, et al. (2011) Plant Cell 23:984-999; Adham, et al. (2005) Plant J. 41:859-874).
To test whether ascr #18 is metabolized via pβo in plants, Arabidopsis mutants impaired in key enzymes of this pathway were analyzed (FIG. 3B). […] In contrast, two other putative po genes, ibr10 and ech2, a putative enoyl-CoA hydratases (Strader, et al. (2011) Plant Cell 23:984-999; Adham, et al. (2005) Plant J. 41:859-874; Zolman, et al. (2008) Genetics 180(1): 237-51), are not required for ascr #18 metabolism in Arabidopsis. ACXs participate in the […] step of pβo by introducing α,β-unsaturation in the side-chain (Von Reuss, et al. (2012) J. Am. Chem. Soc. 134:1817-1824; Strader, et al. (2011) Plant Cell 23:984-999). […] These observations indicate that ascr #18 metabolism in plants into shorter-chained ascarosides proceeds via pβo, and that ACX1 and/or ACX5 are strictly required for chain shortening of ascr #10, whereas the first chain-shortening step from ascr #18 to ascr #10 may involve additional acyl-CoA oxidases.

Compound	abundance among ascr #18-derived metabolites in roots (LC-MS peak area) ([1]; all three plant species, ascr #18 root treatment 24 hours)	ascaroside levels in ascr #18-treated acx1acx5 mutant compared with wildtype [2]	uptake and metabolism of ascr #18 in roots ([1]; roots soaked 24 hours in ascr #18 solution, monocots and dicots)	metabolism of ascr #18 into shorter-chained ascarosides ([2]; acx1acx5 mutant, 1 μM ascr #18, 24 hours)	requirement of ibr10 and ech2 for ascr #18 metabolism ([2]; ibr10, ech2 mutants, 1 μM ascr #18, 24 hours)
C[C@H](CCC(=O)O)O[C@@H]1O[C@@H](C)[C@H](O)C[C@H]1O [ascr #9]	most abundant differential metabolite	not detected	–	–	–
CC1O[C@@H](O[C@@H](C)CCCCCCCCC(=O)O)C(O)C[C@H]1O (stereo in doubt) [ascr #18, (10R)-(3′R,5′R-dihydroxy-6′S-methyl-(2H)-tetrahydropyran-2-yloxy)-undecanoic acid]	–	elevated levels	taken up and subsequently metabolized into ascarosides with shorter fatty-acid side chains	dramatically reduced	not required
